Data taken from patent US11198869B2, “Angelman syndrome antisense treatment” (The Texas A&M University System, priority 2017, dated 2021).

How the values were obtained:
[1] = test system: paternal Ube3aYFP protein; assay: Paternal Ube3aYFP protein levels by immunofluorescent imaging in mouse primary hippocampal neurons; type: cell-based; settings: treated 7 DIV, imaged 10 DIV; ASOs 1, 5, 15 μM, Topotecan 300 nM; compared to ASO-C and Veh
Method: Based on these findings, mouse-specific ASOs were designed to target a specific region in the Ube3a-AS transcript (Table 6 and FIG. 2A). To test whether ASOs targeting this region reactivate expression of the paternal Ube3a allele, primary hippocampal neuronal cultures were generated from the Ube3aYFP reporter mouse model (Ube3a+/YFP; FIG. 2B) and treated at 7 days in vitro (DIV) with a control ASO [ASO-C (10 uM, n=3)], three ASOs targeting Ube3a-AS [ASO-1.1, ASO-1.2, ASO-3.1 (1 μM, 5 μM, and 15 μM, n=3)], and ASO-B (1 μM, 5 μM, and 15 μM, n=3)]. As a positive control, neurons were also treated with Topotecan [Topo (300 nM, n=3)] and a negative vehicle control [Veh (1%, n=3); FIG. 2 C]. Three days post-treatment (10 DIV), immunofluorescent imaging was used to quantify paternal Ube3aYFP protein levels in individual cells.
Primary cultures of hippocampal neurons were generated from P0-P1 pups (Ube3a^m+/p+ and Ube3a^m+/pYFP) by crossing Ube3a^m+/pYFP males with wild-type C57BL/6J females. Genotypes were determined using methods described previously. Briefly, hippocampal neurons were cultured in Neurobasal A medium (Invitrogen, San Diego, Calif.) supplemented with B27 (Invitrogen) and penicillin/streptomycin (Invitrogen) on 96-well optical bottom plates coated with poly-D-Lysine (152028, Thermo Fisher Scientific) and laminin (23017-01, Thermo Fisher Scientific). […]

UBE3A-AS = UBE3A-AS steady state RNA (TaqMan qRT-PCR) in GABAergic iPSC-derived neurons; type: cell-based, human; settings: ASOs 10 μM
Method: (§1) Human-specific ASOs were then designed to target this region, which included four ASOs targeting non-polymorphic regions in human and regions conserved (100%) with macaque (Rhesus and Cynomolgus) (Table 7 and FIG. 3A). Human induced pluripotent stem cell (iPSC) neural precursor cells were differentiated into GABAergic neurons for 14 DIV and then treated with a control ASO [ASO-C (10 μM, n=3)], Topotecan [Topo (1 μM, n=2)], and six ASOs targeting UBE3A-AS [ASO-1, ASO-2, ASO-3, ASO-4, ASO-5, and ASO-6 (10 μM, n=3)]. Additionally, an ASO targeting an intronic region downstream of SNORD109B was included (ASO-7). Six days post-treatment (20 DIV), RNA was isolated from the neurons and the steady state RNA levels of UBE3A-AS and UBE3A were estimated relative to the control treatment (FIG. 3B).
The potency of ASO-4 was further examined given its effect on UBE3A-AS RNA levels. GABAergic iPSC-derived neurons were treated at 14 DIV with a 10-point ½ log dose response curve of ASO-4 and Topotecan, as a positive control and for comparisons between treatment [1 nM, 3 nM, 10 nM, 30 nM, 100 nM, 300 nM, 1 μM, 3 μM, 10 μM, and 30 μM (ASO-4, n=6; Topotecan, n=2)]. At 20 DIV, the steady state RNA levels of UBE3A-AS were measured and dose response curves fitted to estimate the IC50 and Emax (i.e., maximum UBE3A-AS inhibition) (Table 9 and FIG. 4A). […]
Additional ASOs targeting the 5′-end of UBE3A-AS were then designed to optimize the target sequences of ASO-4 (ASO-4.1, ASO-4.2, ASO-4.3, and ASO-4.4) as well as two other target regions, ASO-3 (ASO-3.1 and ASO-3.2) and ASO-6 (ASO-6.1) (Table 11). Additionally, ASO-4 was manufactured at two different vendors for comparative purposes (ASO-4.S, Sigma; ASO-4.I, Integrated DNA Technologies). Human iPSC-derived neurons (GABAergic) were treated at 14 DIV with a […] ½ log dose curve of ASO-3.1, ASO-3.2, ASO-4.S, ASO-4.I, ASO-4.1, ASO-4.2, ASO-4.3, ASO-4.4, and ASO-6.1 [30 nM, 100 nM, 300 nM, 1 μM (n=6)]. At 20 DIV, the IC50 and Emax of each ASO was estimated as described above (FIG. 5A-B and Table 12). […] No significant difference was observed between ASO-4.S and ASO-4.I.
(§2) The potency of ASO-4 and ASO-6.1 was further examined in iPSC-derived neurons at a later time point in differentiation. GABAergic iPSC-derived neurons were treated at 29 DIV with a 10-point ½ log dose response curve of ASO-4 and ASO-6.1 [1 nM, 3 nM, 10 nM, 30 nM, 100 nM, 300 nM, 1 μM, 3 μM, 10 μM, and 30 μM (n=3)]. At 35 DIV, the IC50 and Emax of each ASO was estimated as described above (FIG. 5C-D and Table 14). The dose response curves of ASO-4 and ASO-6.1 were not similar (Parallelism test: F(3,172)=22.7, p<0.0001).
(§3) GABAergic and glutamatergic induced pluripotent stem cell (iPSC) derived neural precursor cells (NRC-100-010-001 and GNC-301-030-001, Cellular Dynamics International, Madison Wis.) were differentiated into neurons according to the manufactures protocol. Briefly, neural precursor cells were thawed and resuspended in chemically defined medium and added to sterile-culture plates coated with poly-D-lysine and laminin. The medium was replaced 24 hr after plating and then one-half of the medium was replaced every 3-5 days afterwards.
(§4) For cultured iPSC-derived neurons, RNA isolation and cDNA synthesis were performed using the Cell-to-CT kit (Thermo Fisher Scientific) in a lysate volume of 55 μl.
The steady state RNA levels of target transcripts were measured using TaqMan quantitative reverse-transcription PCR (qRT-PCR) assays. Total reaction volume was 10 uL, including 2 μl of cDNA, 1× Gene Expression Master mix (4369016, Thermo Fisher Scientific, Waltham, Mass.), and 1× TaqMan primer assay (Thermo Fisher Scientific). Cycling conditions were 2 minutes at 50° C., 10 minutes at 95° C., and 40 cycles of 15 seconds at 95° C. and 1 minute at 60° C., with readings taken at the 60° C. step of every cycle. […]

UBE3A = UBE3A steady state RNA (qRT-PCR) in GABAergic iPSC-derived neurons; type: cell-based, human; settings: ASOs 10 μM
Method: as §1
The effects of ASO-4 and Topotecan were then examined on the SNORD116, IPW, SNORD115, and SNORD109A RNAs, which are located upstream of the ASO-4 target region (see FIG. 1A).
The potency of ASO-4 was further examined in iPSC-derived neurons at a later time point in differentiation. GABAergic iPSC-derived neurons were treated at 59 DIV with a control ASO [ASO-C, 10 μM (n=3)] and ASO-4 [1 uM, 5 μM, and 10 μM (n=3)], and the steady state RNA levels of UBE3A-AS and UBE3A were measured as described above (FIG. 4G). Unlike neurons treated with ASO-4 at an earlier time point, the RNA levels of UBE3A and UBE3A-AS were highly inversely correlated (FIGS. 4H and 4I). For example, the effect of ASO-4 (10 μM) on UBE3A-AS RNA levels was similar between neurons treated at 14 and 59 DIV [20 DIV: UBE3A-AS: ↓87% (95% confidence intervals (CI): 80 to 95%); 65 DIV: ↓81% (95% CI: 74 to 88%)], whereas the effect of ASO-4 on UBE3A RNA levels was substantially larger in neurons treated at 59 DIV [20 DIV: ↑30% (95% CI: 16 to 44%); 65 DIV: ↑86% (95% CI: 59% to 113%)].
as §2, §3, §4
The steady state RNA levels of target transcripts were measured using TaqMan quantitative reverse-transcription PCR (qRT-PCR) assays. Total reaction volume was 10 uL, including 2 μl of cDNA, 1× Gene Expression Master mix (4369016, Thermo Fisher Scientific, Waltham, Mass.), and 1× TaqMan primer assay (Thermo Fisher Scientific). Cycling conditions were 2 minutes at 50° C., 10 minutes at 95° C., and 40 cycles of 15 seconds at 95° C. and 1 minute at 60° C., with readings taken at the 60° C. step of every cycle. Reactions were run on a BIO-RAD T1000 CFX96 thermocycler (Bio-Rad Laboratories, Hercules Calif.), with internal control (PPIA, Hs99999904_m1, Thermo Fisher Scientific) and target [UBE3A-AS, Hs01372957_m1; SNORD116-11, Hs04275268_gH; SNORD115, Hs04275288_gH; IPW, Hs03455409_s1; SNORD109A/B, AP47WVR (Thermo Fisher Scientific); UBE3A: forward […] (SEQ ID NO:500); reverse: […]

[2] = Topo 1 μM, 14 DIV to 20 DIV, ASO-1 minus labelled treatment
[3] = Topo 1 μM, 14 DIV to 20 DIV, ASO-R minus labelled treatment
[4] = Topo 1 μM, 14 DIV to 20 DIV, Topo minus labelled treatment
[5] = Topo 1 μM, treated 14 DIV, RNA 20 DIV, normalized to ASO-C, ASO-C minus labelled treatment
[6] = 14 DIV to 20 DIV, ASO-5 minus labelled treatment
[7] = Topo 1 μM, 14 DIV to 20 DIV, labelled treatment minus ASO-3
[8] = Topo 1 μM, 14 DIV to 20 DIV, labelled treatment minus ASO-R
[9] = Topo 1 μM, treated 14 DIV, RNA 20 DIV, normalized to ASO-C, labelled treatment minus ASO-C
[10] = Topo 1 μM, 14 DIV to 20 DIV, labelled treatment minus ASO-6

Substance	paternal Ube3aYFP protein levels [1]	Difference, UBE3A-AS RNA level (UBE3A-AS; [2])	Difference, UBE3A-AS RNA level (UBE3A-AS; [3])	Difference, UBE3A-AS RNA level (UBE3A-AS; [4])	Difference, UBE3A-AS RNA level (UBE3A-AS; [5])	Difference, UBE3A-AS RNA level (UBE3A-AS; 14 DIV to 20 DIV, ASO-3 minus labelled treatment)	Difference, UBE3A-AS RNA level (UBE3A-AS; [6])	Difference, UBE3A RNA level (UBE3A; [7])	Difference, UBE3A RNA level (UBE3A; [8])	Difference, UBE3A RNA level (UBE3A; [9])	Difference, UBE3A RNA level (UBE3A; [10])	Difference, UBE3A RNA level (UBE3A; Topo 1 μM, 14 DIV to 20 DIV, labelled treatment minus ASO-5)	Difference, UBE3A RNA level (UBE3A; 14 DIV to 20 DIV, labelled treatment minus Topo (1 μM))
C^O*C^O*A^O*C^O*A^O*t*t*t*c*c*t*c*t*c*a*U^O*G^O*G^O*A^O*A^O [ASO-1.1]	level similar to that achieved by the optimal concentration of Topotecan	–	–	–	–	–	–	–	–	–	–	–	–
C^O*U^O*G^O*G^O*U^O*g*t*c*a*a*c*a*a*g*c*C^O*A^O*A^O*A^O*G^O [ASO-6]	–	0.32	0.81	0.17	0.83	0.04	0.12	0.03	0.16	0.16	–	–	–
G^O*U^O*U^O*U^O*U^O*c*t*t*c*c*t*c*c*a*c*A^O*G^O*U^O*C^O*U^O [ASO-5]	–	0.20	0.69	0.05	0.71	–	–	0.03	0.16	0.16	0.00	–	–
U^O*A^O*G^O*A^O*G^O*g*t*g*a*a*g*g*c*c*a*G^O*G^O*C^O*A^O*C^O [ASO-1]	–	–	0.49	–	0.51	–	–	0.05	0.18	0.18	0.02	0.02	0.00
U^O*G^O*U^O*C^O*A^O*g*t*t*t*c*t*c*c*c*t*G^O*A^O*A^O*C^O*A^O [ASO-3]	–	0.28	0.77	0.13	0.79	–	0.08	–	0.13	0.13	–	–	–
